Test results as given in ChEMBL document CHEMBL2331389, “Structure-based discovery of cellular-active allosteric inhibitors of FAK” (Bioorg Med Chem Lett, 2013).

Legend:
[1] = molecular target: Mitogen-activated protein kinase 14 (Homo sapiens, UniProt Q16539); experiment: Inhibition of p38alpha (unknown origin)
[2] = molecular target: Protein-tyrosine kinase 2-beta (Homo sapiens, UniProt Q14289); experiment: Inhibition of Pyk2 (unknown origin)
[3] = molecular target: RAC-alpha serine/threonine-protein kinase (Homo sapiens, UniProt P31749); experiment: Inhibition of Akt1 (unknown origin)
Sequence of RAC-alpha serine/threonine-protein kinase (P31749 whole entry): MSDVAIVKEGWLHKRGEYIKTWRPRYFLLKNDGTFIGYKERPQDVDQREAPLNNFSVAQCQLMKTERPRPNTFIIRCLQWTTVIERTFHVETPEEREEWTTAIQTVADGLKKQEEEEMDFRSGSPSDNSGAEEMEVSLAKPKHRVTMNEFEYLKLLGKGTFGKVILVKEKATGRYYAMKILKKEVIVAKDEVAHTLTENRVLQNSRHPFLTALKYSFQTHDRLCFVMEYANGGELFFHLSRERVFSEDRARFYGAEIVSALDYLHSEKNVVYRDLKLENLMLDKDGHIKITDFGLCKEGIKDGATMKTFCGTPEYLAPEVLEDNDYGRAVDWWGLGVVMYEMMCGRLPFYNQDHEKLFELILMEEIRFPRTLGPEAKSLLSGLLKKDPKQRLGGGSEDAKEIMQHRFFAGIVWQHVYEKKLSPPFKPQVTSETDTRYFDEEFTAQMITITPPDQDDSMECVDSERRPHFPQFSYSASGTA

Aurora kinase B = Aurora kinase B (Homo sapiens, UniProt Q96GD4); experiment: Inhibition of aurora-B (unknown origin)
Sequence of Aurora kinase B (Q96GD4 whole entry): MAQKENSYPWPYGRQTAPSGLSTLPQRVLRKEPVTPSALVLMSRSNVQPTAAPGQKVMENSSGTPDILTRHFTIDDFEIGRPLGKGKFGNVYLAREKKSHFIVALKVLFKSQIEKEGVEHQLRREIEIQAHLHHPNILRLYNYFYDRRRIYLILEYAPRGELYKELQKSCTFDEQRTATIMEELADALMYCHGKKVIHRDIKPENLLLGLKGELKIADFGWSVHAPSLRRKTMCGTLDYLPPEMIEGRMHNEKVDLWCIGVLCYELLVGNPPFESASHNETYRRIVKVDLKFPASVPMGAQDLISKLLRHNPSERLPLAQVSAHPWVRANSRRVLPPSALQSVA

[4] = molecular target: Receptor tyrosine-protein kinase erbB-2 (Homo sapiens, UniProt P04626); experiment: Inhibition of HER2 (unknown origin)
Sequence of Receptor tyrosine-protein kinase erbB-2 (P04626 whole entry): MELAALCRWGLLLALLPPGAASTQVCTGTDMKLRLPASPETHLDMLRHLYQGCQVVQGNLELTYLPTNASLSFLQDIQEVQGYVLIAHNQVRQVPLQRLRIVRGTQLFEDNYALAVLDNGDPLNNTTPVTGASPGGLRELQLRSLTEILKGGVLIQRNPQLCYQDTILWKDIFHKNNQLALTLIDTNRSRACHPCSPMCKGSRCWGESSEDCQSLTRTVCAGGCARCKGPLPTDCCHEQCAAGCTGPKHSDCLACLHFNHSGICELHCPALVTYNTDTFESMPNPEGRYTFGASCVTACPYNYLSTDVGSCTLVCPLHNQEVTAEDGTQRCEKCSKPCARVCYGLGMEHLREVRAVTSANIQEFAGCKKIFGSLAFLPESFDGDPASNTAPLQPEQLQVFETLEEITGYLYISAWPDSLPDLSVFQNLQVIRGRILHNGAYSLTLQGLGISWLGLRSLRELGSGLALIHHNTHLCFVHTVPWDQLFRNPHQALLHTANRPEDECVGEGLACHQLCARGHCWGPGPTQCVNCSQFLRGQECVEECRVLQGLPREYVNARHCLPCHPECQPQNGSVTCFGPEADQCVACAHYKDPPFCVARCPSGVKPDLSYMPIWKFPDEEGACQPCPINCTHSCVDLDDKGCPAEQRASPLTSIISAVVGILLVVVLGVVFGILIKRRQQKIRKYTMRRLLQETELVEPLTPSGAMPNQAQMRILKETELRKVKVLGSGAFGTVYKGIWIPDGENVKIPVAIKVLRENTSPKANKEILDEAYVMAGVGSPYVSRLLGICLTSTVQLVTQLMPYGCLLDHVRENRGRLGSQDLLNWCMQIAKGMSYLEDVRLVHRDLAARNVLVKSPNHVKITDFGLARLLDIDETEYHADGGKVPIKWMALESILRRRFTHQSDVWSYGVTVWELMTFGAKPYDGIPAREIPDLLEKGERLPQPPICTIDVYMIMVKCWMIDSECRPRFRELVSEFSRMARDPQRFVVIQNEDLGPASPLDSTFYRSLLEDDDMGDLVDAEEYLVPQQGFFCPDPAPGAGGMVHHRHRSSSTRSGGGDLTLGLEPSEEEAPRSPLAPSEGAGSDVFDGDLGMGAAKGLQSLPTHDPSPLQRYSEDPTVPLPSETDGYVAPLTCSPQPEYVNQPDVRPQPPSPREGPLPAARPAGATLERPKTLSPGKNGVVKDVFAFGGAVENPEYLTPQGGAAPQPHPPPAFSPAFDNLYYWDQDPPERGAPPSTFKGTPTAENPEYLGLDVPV

[5] = molecular target: Proto-oncogene tyrosine-protein kinase Src (Homo sapiens, UniProt P12931); experiment: Inhibition of Src (unknown origin)
Sequence of Proto-oncogene tyrosine-protein kinase Src (P12931 2-536 limits assumed): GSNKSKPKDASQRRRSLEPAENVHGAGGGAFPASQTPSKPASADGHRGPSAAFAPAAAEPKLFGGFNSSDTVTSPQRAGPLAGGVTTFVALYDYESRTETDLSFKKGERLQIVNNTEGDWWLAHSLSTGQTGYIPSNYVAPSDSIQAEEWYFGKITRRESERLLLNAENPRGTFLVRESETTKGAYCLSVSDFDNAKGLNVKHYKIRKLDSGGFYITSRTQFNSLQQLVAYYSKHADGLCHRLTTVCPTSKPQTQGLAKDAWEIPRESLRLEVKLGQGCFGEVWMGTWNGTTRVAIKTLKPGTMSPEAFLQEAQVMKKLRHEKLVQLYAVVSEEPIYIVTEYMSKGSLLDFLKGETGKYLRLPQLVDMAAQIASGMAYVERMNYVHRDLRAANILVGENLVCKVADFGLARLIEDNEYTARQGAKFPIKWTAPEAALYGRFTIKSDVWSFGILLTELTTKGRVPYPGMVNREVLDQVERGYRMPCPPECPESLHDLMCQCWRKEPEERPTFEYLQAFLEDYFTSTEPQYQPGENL

Focal adhesion kinase 1 [6] = molecular target: T1, Focal adhesion kinase 1 (Homo sapiens, UniProt Q05397)
T1 sequence (Q05397 whole entry): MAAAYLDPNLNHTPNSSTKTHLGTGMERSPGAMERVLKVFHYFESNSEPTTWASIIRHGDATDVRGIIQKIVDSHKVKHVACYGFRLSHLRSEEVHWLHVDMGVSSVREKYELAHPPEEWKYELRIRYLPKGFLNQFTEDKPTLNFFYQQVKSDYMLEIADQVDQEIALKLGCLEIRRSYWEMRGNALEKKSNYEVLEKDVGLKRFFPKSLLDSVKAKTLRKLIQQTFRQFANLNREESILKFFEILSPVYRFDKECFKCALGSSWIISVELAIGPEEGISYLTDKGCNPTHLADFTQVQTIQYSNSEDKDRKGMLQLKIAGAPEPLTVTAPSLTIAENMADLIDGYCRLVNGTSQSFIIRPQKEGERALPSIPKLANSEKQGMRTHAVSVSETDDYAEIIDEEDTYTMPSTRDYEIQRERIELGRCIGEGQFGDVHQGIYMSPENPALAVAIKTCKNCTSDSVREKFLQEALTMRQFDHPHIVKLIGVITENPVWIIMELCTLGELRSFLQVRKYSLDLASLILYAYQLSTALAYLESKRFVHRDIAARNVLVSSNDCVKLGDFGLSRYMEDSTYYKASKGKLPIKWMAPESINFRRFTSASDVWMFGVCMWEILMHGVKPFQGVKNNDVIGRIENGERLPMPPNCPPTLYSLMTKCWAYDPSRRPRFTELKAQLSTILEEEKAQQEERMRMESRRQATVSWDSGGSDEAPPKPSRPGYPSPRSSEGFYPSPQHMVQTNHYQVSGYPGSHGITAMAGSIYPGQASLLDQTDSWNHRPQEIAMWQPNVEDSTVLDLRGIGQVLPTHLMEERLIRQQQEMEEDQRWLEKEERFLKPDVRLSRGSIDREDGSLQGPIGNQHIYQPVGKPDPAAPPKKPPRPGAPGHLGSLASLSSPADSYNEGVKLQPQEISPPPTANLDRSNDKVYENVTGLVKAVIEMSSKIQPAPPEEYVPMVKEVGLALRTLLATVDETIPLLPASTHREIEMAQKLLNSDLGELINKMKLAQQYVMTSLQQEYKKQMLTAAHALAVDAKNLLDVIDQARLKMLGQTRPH

Focal adhesion kinase 1 [7] = molecular target: T1, Focal adhesion kinase 1; remark: listed apart in the source
[8] = molecular target: Dual specificity mitogen-activated protein kinase kinase 1 (Homo sapiens, UniProt Q02750); experiment: Inhibition of MEK1 (unknown origin)
Sequence of Dual specificity mitogen-activated protein kinase kinase 1 (Q02750 whole entry): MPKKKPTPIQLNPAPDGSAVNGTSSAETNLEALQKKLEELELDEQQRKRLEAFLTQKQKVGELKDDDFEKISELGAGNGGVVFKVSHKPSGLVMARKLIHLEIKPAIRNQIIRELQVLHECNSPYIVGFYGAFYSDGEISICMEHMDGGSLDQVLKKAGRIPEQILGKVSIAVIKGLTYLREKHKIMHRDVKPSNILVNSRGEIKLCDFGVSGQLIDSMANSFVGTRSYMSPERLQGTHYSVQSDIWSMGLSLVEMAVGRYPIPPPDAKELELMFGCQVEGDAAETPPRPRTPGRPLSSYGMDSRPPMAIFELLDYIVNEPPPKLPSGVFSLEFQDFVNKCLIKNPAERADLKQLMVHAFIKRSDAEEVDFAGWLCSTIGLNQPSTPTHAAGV

Sequence of Mitogen-activated protein kinase 14 (Q16539 whole entry): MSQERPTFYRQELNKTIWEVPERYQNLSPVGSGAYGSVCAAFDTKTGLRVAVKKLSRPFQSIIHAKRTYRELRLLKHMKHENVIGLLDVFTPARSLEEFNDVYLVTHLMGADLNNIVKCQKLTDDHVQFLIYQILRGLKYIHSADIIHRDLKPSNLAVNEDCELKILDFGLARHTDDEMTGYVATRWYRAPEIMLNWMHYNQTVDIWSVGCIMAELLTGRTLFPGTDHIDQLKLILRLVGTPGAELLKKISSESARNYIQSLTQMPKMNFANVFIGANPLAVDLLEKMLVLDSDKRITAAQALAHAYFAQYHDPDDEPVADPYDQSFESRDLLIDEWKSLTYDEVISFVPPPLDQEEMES

Row | Compound | IC50 [1] | IC50 [2] | IC50 [3] | IC50 (Aurora kinase B) | IC50 [4] | IC50 [5] | IC50 (Focal adhesion kinase 1 [6]) | IC50 (Focal adhesion kinase 1 [7]) | IC50 [8]
1 | CCc1ccc(-c2ccc3c(c2)-c2c(cnn2C)S(=O)(=O)N3C)cc1 | > 10 µM | > 10 µM | > 10 µM | > 10 µM | > 10 µM | > 10 µM | 0.42 µM | 0.077 µM | > 10 µM
2 | CCc1ccc(-c2ccc3c(c2)-c2c(cnn2CC)S(=O)(=O)N3C)cc1 | – | – | – | – | – | – | – | 2.1 µM | –
3 | CCc1ccc(-c2ccc3c(c2)-c2nn(C)cc2S(=O)(=O)N3C)cc1 | – | – | – | – | – | – | – | > 30 µM | –
4 | CN1c2ccc(C(=O)Nc3ccc(F)cc3)cc2-c2c(cnn2C)S1(=O)=O | – | – | – | – | – | – | – | > 30 µM | –
5 | CN1c2ccc(NCc3ccc(C(C)(C)C)cc3)cc2-c2c(cnn2C)S1(=O)=O | > 10 µM | > 10 µM | > 10 µM | > 10 µM | > 10 µM | > 10 µM | – | – | > 10 µM
6 | CCc1ccc(-c2ccc3c(c2)-c2n[nH]cc2S(=O)(=O)N3C)cc1 | > 10 µM | – | > 10 µM | 5.1 µM | > 10 µM | > 10 µM | – | – | 8.6 µM
